Legend:
[1] = Retention of chlorine in air dried coatings on soft surface substrates (iodometric titration); type: physicochemical
Text: The purpose of this experiment was to measure the beneficial effect of binder plus SHA on retention of chlorine in air dried coatings of N-halamine formulations on a soft surface substrate. Solutions of MCDMH, MCDMH plus hydroxyethylcellulose binder plus SHA, each containing equivalent amounts of oxidative Cl were applied to 9 cm^2 of soft surface substrate (cotton fabrics or paper), and allowed to air dry at room temperature in a chemical fume hood. Determinations of chlorine per cm^2 were made on fabrics sampled after 4 hours, 24 hours, 48 hours, and 96 hours. The remaining chlorine was measured by iodometric titration after soaking of test samples in deionized water for 1 hour at room temperature.

[2] = Retention of chlorine in air dried coatings on hard surface substrate (iodometric titration); type: physicochemical; settings: Formica coupons
Description: The purpose of this experiment was to measure the effect of binder plus SHA on retention of chlorine in air dried coatings of water-based N-halamine formulations on a hard surface substrate. The procedure used one gram of MCDMH with or without 0.2 grams of hydroxyethylcellulose binder and 0.1 grams of SHA dissolved in 100 ml of water as the surface treatments. Solutions of MCDMH, MCDMH plus binder and SHA containing equivalent amounts of oxidative chlorine were applied to 9 cm^2 of hard surface substrate (Formica coupons), and allowed to dry at room temperature in a chemical fume hood. Determinations of chlorine levels per cm^2 were made on coupons sampled after 4 hours, 24 hours, 48 hours, and 96 hours. The chlorine remaining on each surface was measured by iodometric titration of solutions obtained after soaking of test samples in deionized water for 1 hour at room temperature.

Chlorine Content ([1]; Cotton, 4 h): 2.41 ×10^18 Cl/cm^2
Chlorine Content ([1]; Cotton, 24 h): 2.04 ×10^18 Cl/cm^2
Chlorine Content ([1]; Cotton, 48 h): 1.56 ×10^18 Cl/cm^2
Chlorine Content ([1]; Cotton, 96 h): 0.89 ×10^18 Cl/cm^2
Chlorine Content ([1]; Paper, 4 h): 2.74 ×10^18 Cl/cm^2
Chlorine Content ([1]; Paper, 24 h): 2.12 ×10^18 Cl/cm^2
Chlorine Content ([1]; Paper, 48 h): 1.87 ×10^18 Cl/cm^2
Chlorine Content ([1]; Paper, 96 h): 1.04 ×10^18 Cl/cm^2
Chlorine Content ([2]; 4 h): 3.61 ×10^18 Cl/cm^2
Chlorine Content ([2]; 24 h): 3.25 ×10^18 Cl/cm^2
Chlorine Content ([2]; 48 h): 3.01 ×10^18 Cl/cm^2
Chlorine Content ([2]; 96 h): 2.75 ×10^18 Cl/cm^2
Compound: CC1(C)NC(=O)N(Cl)C1=O [MCDMH]

Reference: patent publication US10028482B2, “Disinfecting and deodorizing compositions and methods with novel polymeric binding system” (priority 2014, dated 2018)
